Measured values from PubChem BioAssay (NCI).
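Five concentrations, 48 hours, 96-well plates. GI50 = concentration required for 50% inhibition of growth. TGI marks complete inhibition of growth.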

Experiments:
Experiment in all cases: NCI tumour cell line growth inhibition, 48 h
MALME-3M melanoma = tested on: MALME-3M melanoma
SK-MEL-2 melanoma = tested on: SK-MEL-2 melanoma
SW-620 colon = tested on: SW-620 colon
LOX IMVI melanoma = tested on: LOX IMVI melanoma
HCT-15 colon = tested on: HCT-15 colon
NCI-H226 lung = tested on: NCI-H226 lung
NCI-H23 lung = tested on: NCI-H23 lung
HOP-92 NSCLC = tested on: HOP-92 NSCLC
SF-268 CNS = tested on: SF-268 CNS
UO-31 renal = tested on: UO-31 renal

SMILES	TGI (MALME-3M melanoma)	TGI (SK-MEL-2 melanoma)	TGI (SW-620 colon)	TGI (LOX IMVI melanoma)	TGI (HCT-15 colon)	TGI (NCI-H226 lung)	TGI (NCI-H23 lung)	TGI (HOP-92 NSCLC)	TGI (SF-268 CNS)	TGI (UO-31 renal)	GI50 (LOX IMVI melanoma)	GI50 (HCT-15 colon)	GI50 (NCI-H226 lung)	GI50 (NCI-H23 lung)	GI50 (SF-268 CNS)	GI50 (MALME-3M melanoma)	GI50 (SK-MEL-2 melanoma)	GI50 (SW-620 colon)	GI50 (HOP-92 NSCLC)
CCOC(=O)c1c(NC(=S)Nc2ccccc2)sc2c1CCOC2	> 100 µM	> 100 µM	> 100 µM	> 100 µM	> 100 µM	> 100 µM	> 100 µM	89.4 µM	> 100 µM	> 100 µM									
COc1ccc2nc3cc(Cl)ccc3c(SCC(=O)Nc3ccccc3-c3ccccc3NC(=O)CSc3c4ccc(Cl)cc4nc4ccc(OC)cc34)c2c1	> 100 µM	> 100 µM	> 100 µM	> 100 µM	> 100 µM	> 100 µM	> 100 µM	> 100 µM	> 100 µM	> 100 µM									
CCN1CN(c2ccccc2)C2(CCN(CC(CC3OCCO3)c3ccc(F)cc3)CC2)C1=O (centres undefined)	43.1 µM	46.8 µM	> 40.4 µM	35.1 µM	> 67.5 µM	65 µM	> 57.3 µM	10.3 µM	38.2 µM	> 74.8 µM									
C=C1C[C@H](O)[C@H](Br)C(C)(C)C12CCC(C)(Cl)C(Br)C2 (some centres undefined)	16.6 µM	6.55 µM	20.4 µM	20.1 µM	19.3 µM	12.7 µM	7.98 µM	8.76 µM	20.8 µM	17 µM									
CCCCCCCCC/C=C1\CCC(CN(C)C)C1=O (centres undefined)	12.6 µM	6.42 µM	3.08 µM	2.59 µM	4.66 µM	23.9 µM	5.61 µM	4.39 µM	3.71 µM	4.04 µM									
CCOc1cc2c(c(OCC)c1O)CC[C@@H]1[C@@H]2CC[C@]2(C)[C@@H](O)CC[C@@H]12	66.4 µM	83.7 µM	41.7 µM	17.1 µM	14 µM	> 100 µM	41.4 µM	67.6 µM	52.1 µM	79.3 µM									
Cc1cnc2sn(-c3ccc(Br)cc3)c(=O)c2c1	43.6 µM	> 100 µM	89.6 µM	> 100 µM	> 100 µM	> 100 µM	> 100 µM	68.8 µM	> 100 µM	> 100 µM									
c1ccc([I+]c2ccccc2)cc1	> 100 µM	> 100 µM	> 100 µM	> 100 µM	> 100 µM	> 100 µM	> 100 µM	> 100 µM	> 100 µM	> 100 µM									
CC(C)N(C(C)C)S(=O)(=O)C[C@]12CC[C@H](CC13OCC(CS(=O)(=O)c1ccccc1)O3)C2(C)C (some centres undefined)	> 100 µM	> 100 µM	> 100 µM	> 100 µM	> 100 µM	> 100 µM	> 100 µM	> 75.3 µM	> 100 µM	> 100 µM									
O=C(CC(Cl)=C(Cl)Cl)c1ccccc1	> 100 µM	> 100 µM	> 100 µM	32.1 µM	70.6 µM	72.5 µM	> 100 µM	> 100 µM	> 100 µM	> 100 µM									
Cc1ccc(Nc2nc3c(=O)n(C)c(=O)n(C)c3nc2Nc2ccc(C)cc2)cc1	28.6 µM	33.5 µM	4.04 µM	22.6 µM	11.8 µM	> 100 µM	31.2 µM	23.5 µM	32.2 µM	24.4 µM									
CCO/C=N/C1=C(C#N)SC2=N/C(=C\c3ccccc3)C(=O)N21	> 100 µM	> 100 µM	> 100 µM	> 100 µM	> 100 µM	> 100 µM	> 100 µM	> 100 µM	> 100 µM	> 100 µM									
CCOC(=O)/C=C(/C)Nc1nc2c(c(C(=O)OC)c1C#N)CCCC2	> 100 µM	> 100 µM	> 100 µM	> 100 µM	> 100 µM	> 100 µM	> 100 µM	> 100 µM	> 100 µM	> 100 µM									
BrCC[N+]12CC[N+](CCBr)(CC1)C2	> 100 µM	> 100 µM	> 100 µM	> 100 µM	> 100 µM	> 100 µM	> 100 µM	> 100 µM	> 100 µM	> 100 µM									
CNc1nc(C(N)=O)c(N)s1	> 100 µM	> 100 µM	> 100 µM	> 100 µM	> 100 µM	> 100 µM	> 100 µM	> 100 µM	> 100 µM	> 100 µM									
Fc1ccc(C(OCCN2CC3CCC(C2)N3CCCc2ccccc2)c2ccc(F)cc2)cc1	11.2 µM	12 µM	17.3 µM	13 µM	12.2 µM	13.1 µM	15.3 µM	21.1 µM	15.1 µM	19.4 µM									
CN(C)c1ccc(C=C2C(=O)NC(=S)NC2=O)c2ccccc12	> 100 µM	> 100 µM	> 100 µM	77 µM	> 100 µM	> 100 µM	> 100 µM	91.4 µM	76.9 µM	> 100 µM									

SMILES	TGI (MALME-3M melanoma)	TGI (SK-MEL-2 melanoma)	TGI (SW-620 colon)	TGI (LOX IMVI melanoma)	TGI (HCT-15 colon)	TGI (NCI-H226 lung)	TGI (NCI-H23 lung)	TGI (HOP-92 NSCLC)	TGI (SF-268 CNS)	TGI (UO-31 renal)	GI50 (LOX IMVI melanoma)	GI50 (HCT-15 colon)	GI50 (NCI-H226 lung)	GI50 (NCI-H23 lung)	GI50 (SF-268 CNS)	GI50 (MALME-3M melanoma)	GI50 (SK-MEL-2 melanoma)	GI50 (SW-620 colon)	GI50 (HOP-92 NSCLC)
N#Cc1c(O)c(/C=N/c2ncccn2)c(=O)n2c1[nH]c1ccccc12	> 100 µM	> 100 µM	> 100 µM	> 100 µM	> 100 µM	> 100 µM	> 100 µM	> 100 µM	> 100 µM	> 100 µM									
O=C1CC(NCc2ccccc2)c2c(Cl)sc(Cl)c21 (centres undefined)	44.4 µM	51.5 µM	> 87.4 µM	18.5 µM	46.9 µM	> 63.5 µM	39.5 µM	64.8 µM	50.2 µM	75.7 µM									
NS(=O)(=O)c1ccc(/C=C/c2ccc(O)cc2)cc1	78.1 µM	60.3 µM	> 100 µM	> 100 µM	> 100 µM	33.1 µM	60.1 µM	39.5 µM	> 100 µM	36.2 µM	19.1 µM	24.6 µM	11.1 µM	16.9 µM	31.5 µM				
O=C(c1ccccc1)N1C(=S)N(c2ccccn2)C(=Nc2ccccc2)C1=Nc1ccccc1	53.4 µM	34.6 µM	> 65.6 µM	> 48.9 µM	14.9 µM	> 100 µM	> 36.5 µM	20.8 µM	> 100 µM	27.1 µM									
CCOP(=O)(OCC)OC1c2[nH]cc(C(=O)OCc3ccccc3)c2-c2cc(C(=O)OC)[nH]c2C1OC (centres undefined)	60 µM	> 76.5 µM	> 100 µM	> 41.4 µM	> 100 µM	58.3 µM	> 100 µM	26.3 µM	> 96 µM	> 59.1 µM									
CC(=O)CC1=C(OC(C)C)C2(OCCO2)C1O (centres undefined)	> 100 µM	> 100 µM	> 100 µM	> 100 µM	> 100 µM	> 100 µM	> 100 µM	> 100 µM	> 100 µM	> 100 µM									
CC(=O)O[C@H]1CCC2[C@@H]3CCC4c5nonc5CC[C@]4(C)C3CC[C@@]21C (some centres undefined)	> 100 µM	> 100 µM	> 100 µM	> 10 µM	> 10 µM	> 10 µM	> 10 µM	> 100 µM	> 10 µM	> 10 µM						> 100 µM	> 100 µM	> 100 µM	> 100 µM
COc1ccc(-c2oc3c(OC)c(OC)cc(O)c3c(=O)c2OC)cc1	> 100 µM	> 100 µM	> 100 µM	> 100 µM	> 100 µM	> 100 µM	> 100 µM	> 100 µM	> 100 µM	> 100 µM									
COC(=O)/C=C1/OC(c2ccc(OC)cc2)=C(Cl)C1=O	30.7 µM	33.6 µM	28.1 µM	21.2 µM	33.9 µM	51.1 µM	34.9 µM	57.5 µM	36.8 µM	37.7 µM									
ClCCCCCc1c2nc(c(CCCCCCl)c3ccc([nH]3)c(CCCCCCl)c3ccc([nH]3)c(CCCCCCl)c3nc1C=C3)C=C2	> 100 µM	> 100 µM	> 100 µM	> 100 µM	> 100 µM	> 100 µM	> 100 µM	> 100 µM	> 100 µM	> 100 µM									
CCOC(=O)C(Cl)(NC(=O)OCc1ccccc1)C(F)(F)F (centres undefined)	> 100 µM	> 100 µM	> 100 µM	> 100 µM	> 100 µM	> 100 µM	> 100 µM	> 100 µM	> 100 µM	> 100 µM									
CC(C)Oc1c(-c2ccc(F)cc2)c(O)c2c3c1oc(=O)n3C=CC2C (centres undefined)	91.1 µM	53.3 µM	28.5 µM	28.2 µM	29.7 µM	26.9 µM	24.6 µM	28 µM	35.2 µM	25.5 µM									
O=C(c1cc2c(c3ccccc13)NC1(CCCCC1)N=C2C(F)(F)F)C(F)(F)F	17.4 µM	5.87 µM	18.7 µM	12.1 µM	16.7 µM	11 µM	12.5 µM	13.4 µM	20 µM	11.8 µM									
CN1CC2CN(Cc3ccccc3)CCN2c2cccnc21 (centres undefined)	> 100 µM	> 100 µM	> 100 µM	49.4 µM	> 100 µM	> 100 µM	> 100 µM	> 100 µM	> 100 µM	> 100 µM									
CC(=O)OC(C)(C)CCC(=O)[C@](C)(O)[C@H]1[C@H](O)C[C@@]2(C)[C@@H]3CCc4c(cc(OC5OC(CO)C(O)C(O)C5O)c(O)c4C)C3(C)C(=O)C[C@]12C (some centres undefined)	> 100 µM	> 100 µM	> 100 µM	> 100 µM	> 100 µM	> 100 µM	> 100 µM	> 100 µM	> 100 µM	> 100 µM									
O=C(N/N=C/c1ccccc1)c1cccc2nc3ccccc3nc12	> 100 µM	> 100 µM	> 100 µM	> 100 µM	> 100 µM	> 100 µM	> 69.2 µM	> 100 µM	> 100 µM	> 100 µM									
